# Key:
# Assay type in all cases: physicochemical
# [1] = Bulk density and tap density; details: for Weight of 5.0 cm^3 of Solid: untapped; for Tapped density: after tapping 50 times; for Bulk density: calculated from weight of 5.0 cm^3 of solid; for Volume after tapped 50 times: starting volume 5.0 cm^3, tapped 50 times
# Procedure: A comparative study of the bulk density and the tapped density of the 3 solid forms of compound one were carried out. The 3 materials tested were (1) compound I hydrate, (2) the polymorphic form of compound I of the invention and (3) the polymorphic form of compound I isolated from methanol. The tests indicated the weight of material in 5.0 cm^3 of solid (g) to calculate the bulk density. This was then tapped 50 times and the tapped density calculated.
# [2] = Dynamic vapour sorption (DVS) at 25° C.; details: 0% to 95% RH; for total moisture uptake (percent change in mass based on dry mass): first cycle
# Procedure: A comparative study of the dynamic vapour sorption (DVS) of the 3 solid forms of compound one were carried out. The 3 materials tested were (1) compound I hydrate, (2) the polymorphic form of compound I of the invention and (3) the polymorphic form of compound I isolated from methanol. The samples were analysed on a DVS automated moisture sorption instrument at 25° C. with sample sizes of 25-52 mg for the analysis. The samples were initially dried for 300 minutes under a continuous flow of air to establish the dry mass. The samples were then exposed to the following typical partial pressure profile: 0% to 90% RH in 10% steps and then followed by a 5% step to 95%. The partial pressure was then decreased in a similar manner.
# Typical net percent change in mass (based on dry mass) versus time plots for the first cycle at 25° C. for the three samples are shown in FIGS. 7, 9 and 11. […] The line plotted on the left y-axis, indicates the percentage change in mass referenced to the dry mass (after initial drying stage), m0, as a function of time. The other line, plotted on the right y-axis, traces the requested % partial pressure of water vapour in the DVS as a function of time.
# The isotherm plots display the percent change in mass (referenced from the dry mass, m0) versus the requested relative humidity.
# For all the RH steps, the instrument was run in a dm/dt mode (mass variation over time variation). A fixed dm/dt value of 0.002% min-1 was selected. This criterion permits the DVS software to automatically determine when equilibrium has been reached and complete a relative humidity step. When the rate of change of mass falls below this threshold over a determined period of time, the humidity will proceed to the next programmed level. A maximum stage time of 360 minutes and a minimum stage time of 10 minutes were selected for this experiment.
# [3] = Dissolution analysis in ethanol (% transmission until complete dissolution); details: set amount in ethanol with stirring, until % transmission reached 100%, FIG. 6
# Procedure: In order to test the solubility of the polymorphs produced in examples 1 and 2 a set amount of the material was added to ethanol with stirring and the % transmission of the mixture thus monitored until the % transmission reached 100% (which indicated complete dissolution). The 3 materials tested were (1) compound I hydrate, (2) the polymorphic form of compound I of the invention and (3) the polymorphic form of compound I isolated from methanol. The results of this experiment were detailed in FIG. 6. […] In contrast the dissolution profile of the polymorphic form of the invention is much slower taking almost 8 times as long to reach full dissolution.
# [4] = listed as polymorphic form of the invention
compound,measurement,setting,value
"CC1O[C@@H](OC2C(O)[C@H](O)C(CO)O[C@H]2O[C@H]2CC[C@@]3(C)C(=CC[C@H]4[C@@H]5C[C@@H]6O[C@]7(CC[C@@H](C)CO7)[C@@H](C)[C@@H]6[C@@]5(C)CC[C@@H]43)C2)C(O)C(O)[C@H]1O (stereo partly drawn) [Form 1, diosgenyl α-L-rhamnopyranosyl-(1->2)-β-D-glucopyranoside]",Weight of 5.0 cm^3 of Solid,[1]; listed as 1,1.430 g
same,Tapped density,[1]; listed as 1,0.37 g/mL
same,Bulk density,[1]; listed as 1,0.29 g/mL
same,Volume after tapped 50 times,[1]; listed as 1,3.9 cm^3
same,total moisture uptake (percent change in mass based on dry mass),[2]; listed as anhydrate,about 5.2%
same,percentage of water uptake (in words),[2]; listed as hydrate,relatively high
same,dissolution rate / dissolution profile (in words),[3]; listed as hydrate,fastest
"CC1O[C@@H](OC2C(O)[C@H](O)C(CO)O[C@H]2O[C@H]2CC[C@@]3(C)C(=CC[C@H]4[C@@H]5C[C@@H]6O[C@]7(CC[C@@H](C)CO7)[C@@H](C)[C@@H]6[C@@]5(C)CC[C@@H]43)C2)C(O)C(O)[C@H]1O (stereo partly drawn) [Form 2, diosgenyl α-L-rhamnopyranosyl-(1->2)-β-D-glucopyranoside]",Weight of 5.0 cm^3 of Solid,[1]; listed as 2,1.489 g
same,Tapped density,[1]; listed as 2,0.41 g/mL
same,Bulk density,[1]; listed as 2,0.30 g/mL
same,Volume after tapped 50 times,[1]; listed as 2,3.6 cm^3
same,total moisture uptake (percent change in mass based on dry mass),[2]; [4],about 0.55%
same,percentage of water uptake (in words),[2]; [4],low
same,"time to reach full dissolution, relative to the other forms",[3],~8 times as long
same,dissolution rate / dissolution profile (in words),[3]; [4],much slower
"CC1O[C@@H](OC2C(O)[C@H](O)C(CO)O[C@H]2O[C@H]2CC[C@@]3(C)C(=CC[C@H]4[C@@H]5C[C@@H]6O[C@]7(CC[C@@H](C)CO7)[C@@H](C)[C@@H]6[C@@]5(C)CC[C@@H]43)C2)C(O)C(O)[C@H]1O (stereo partly drawn) [Form 3, diosgenyl α-L-rhamnopyranosyl-(1->2)-β-D-glucopyranoside]",Weight of 5.0 cm^3 of Solid,[1]; listed as 3,0.847 g
same,Tapped density,[1]; listed as 3,0.26 g/mL
same,Bulk density,[1]; listed as 3,0.17 g/mL
same,Volume after tapped 50 times,[1]; listed as 3,3.2 cm^3
same,total moisture uptake (percent change in mass based on dry mass),[2]; listed as polymorph from methanol,about 2.5%
same,percentage of water uptake (in words),[2]; listed as polymorph obtained from methanol,relatively high
same,dissolution rate / dissolution profile (in words),[3]; listed as polymorphic form isolated from methanol,very rapid

# Source: patent US20150307543A1, “POLYMORPH” (ONCOLOGY RESEARCH INTERNATIONAL LIMITED, priority 2012, published 2015)
